Data: patent US4593090A, “Novel nitrosourea compounds, method for preparing same, and pharmaceutical composition containing same” (Gogo Kimura, priority 1981, dated 1986)
Where two headings read alike, the source gives them in different places.

Legend:
Leukemia L1210 = assay: Activity against Leukemia L1210, intraperitoneal, increase in life span of mice; assay type: in vivo, female mice (BDF1 family); conditions: for ED (maximum ILS) / ED30: Mus musculus, L1210, ip, ip once a day for 5 successive days; for ED (maximum ILS): daily dosage giving maximum increase of life span, read-out: O.D. (optimum dosage); for ED30: daily dosage increasing average survival days by 30%, read-out: ILS30; for Survivors after 60 days / Max. ILS % / Therapeutic ratio TR: ip; for Survivors after 60 days: 6-membered group; for Max. ILS %: 60-day observation, versus control; for Therapeutic ratio TR: O.D./ILS30
Summary of the method: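 Female BDF1 mice (20 to 23 g; 6 per group) were implanted intraperitoneally with 1×10^5 L1210 cells, then dosed ip or orally once daily for 5 days starting 24 h later. Survival was followed over 60 days, and ILS% was derived from mean survival days versus untreated controls.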

[1] = Acute toxicity (LD50, Behrens-Karber method); assay type: in vivo, ICR mice; conditions: mouse, in vivo, ip, mortality during 30 days
Experimental: Test compounds, dissolved or suspended in 0.5% aqueous CMC, were each intraperitoneally administered to ICR mice in a dose of 0.1 ml per 10 g body weight. LD50 (mg/kg) value of each test compound was calculated from the mortality of mice during 30 days by the Behrens-Karber method.

Ehrlich acites carcinoma = assay: Growth-inhibiting effect against Ehrlich acites carcinoma; assay type: in vivo, male mice; conditions: Mus musculus, Ehrlich, 120 h, 5 days; for response vs control in vivo at 25 mg/kg: 25 mg/kg/day ip; for response vs control in vivo at 100 mg/kg: 100 mg/kg/day ip
Experimental: Ehrlich acites carcinoma (1×10^7 cells) was implantated into the abdominal cavities of a 6-membered group of male mice. Test compounds (solutions or suspensions in 1% Nikohl HCO-60) were each intraperioneally administered once a day 5 successive days to the mice 24 hrs. after the implantation. Total packed cell volumes [TPCV, namely, total packed volumes of Acites carcinoma] were determined 7 days after the implantation to calculate growth ratio of tumor [T/C%; T: packed volume of Acites carcinoma in treated groups, C: packed volume of Acites carcinoma in an untreated group]. Acitivity is represented by - when T/C% is 100-66, by + when T/C% 65-41, by ++ when T/C% 40-11, and by +++ when T/C% 10-0.

SMILES | ED (maximum ILS) (Leukemia L1210) [mg/kg] | ED30 (Leukemia L1210) [mg/kg] | Survivors after 60 days (Leukemia L1210) | Max. ILS % (Leukemia L1210) [%] | Therapeutic ratio TR (Leukemia L1210) | LD50 at 720 h [1] [mg/kg] | response vs control in vivo at 25 mg/kg (Ehrlich acites carcinoma; read-out: Activity) [%] | response vs control in vivo at 25 mg/kg (Ehrlich acites carcinoma; read-out: T/C %) [%] | response vs control in vivo at 100 mg/kg (Ehrlich acites carcinoma; read-out: Activity) [%] | response vs control in vivo at 100 mg/kg (Ehrlich acites carcinoma; read-out: T/C %) [%]
COc1cccc(CO[C@H]2O[C@H](CN(CC(C)C)C(=O)N(CCCl)N=O)[C@@H](O)[C@H](O)[C@H]2O)c1OC [Compound 52, 3-isobutyl-3-(2,3-dimethoxybenzyl α-D-glucopyranose-6-yl)-1-(2-chloroethyl)-1-nitrosourea] | 120 | 3.62 | 4/6 | > 420 | 33.1 | 360 | 0 to 10 | 0 | 0 to 10 | 0
CCC(C)N(C[C@H]1O[C@H](OCCOCOC)[C@H](O)[C@@H](O)[C@H]1O)C(=O)N(CCCl)N=O (stereo partly shown) [Compound 115] | 200 | 3.2 | 6/6 | > 700 | 62.5 | 600 | 0 to 10 | 0 | 0 to 10 | 0
CCOCCN(C[C@H]1O[C@H](OC2CCCCC2)[C@H](O)[C@@H](O)[C@@H]1O)C(=O)N(CCCl)N=O [Compound 40, 3-(2-ethoxyethyl)-3-(cyclohexyl α-D-glucopyranose-6-yl)-1-(2-chloroethyl)-1-nitrosourea] | 170 | 2.66 | 6/6 | > 700 | 63.9 | 545 | 0 to 10 | 0 | 0 to 10 | 0
CCCCN(C[C@H]1O[C@H](OCCCOC)[C@H](O)[C@@H](O)[C@@H]1O)C(=O)N(CCCl)N=O [Compound 30, 3-n-butyl-3-(3-methoxy-n-propyl-α-D-glucopyranose-6-yl)-1-(2-chloroethyl)-1-nitrosourea] | 150 | 2.61 | 6/6 | > 700 | 57.5 | 450 | 0 to 10 | 0 | 0 to 10 | 0
O=NN(CCCl)C(=O)N(CC1CCCO1)C[C@H]1O[C@H](OC2CCCCC2)[C@H](O)[C@@H](O)[C@@H]1O (stereo partly drawn) [Compound 50, 3-tetrahydrofurfuryl-3-(cyclohexyl α-D-glucopyranose-6-yl)-1-(2-chloroethyl)-1-nitrosourea] | 150 | 2.31 | 6/6 | > 700 | 64.9 | 450 | 0 to 10 | 0 | 0 to 10 | 0
CC(C)(C)CN(C[C@H]1O[C@H](OCC2CCCO2)[C@H](O)[C@@H](O)[C@@H]1O)C(=O)N(CCCl)N=O (stereo partly drawn) [Compound 188, 3-neopentyl-3-(tetrahydrofurfuryl α-D-glucopyranose-6-yl)-1-(2-chloroethyl)-1-nitrosourea] | 170 | 2.72 | 6/6 | > 700 | 62.5 | 550 | 0 to 10 | 0 | 0 to 10 | 0
CCCCOC1OC(CO)C(O)C(O)C1N(CC1CCCO1)C(=O)N(CCCl)N=O [Compound 63, 3-tetrahydrofurfuryl-3-(n-butyl α-D-glucopyranose-2-yl)-1-(2-chloroethyl)-1-nitrosourea] | 190 | 5.31 | 3/6 | > 350 | 35.8 | 595 | 0 to 10 | 0 | 0 to 10 | 0
CCCCN(C[C@@H]1O[C@@H](OCC2CC2)[C@@H](O)[C@H](O)[C@@H]1O)C(=O)N(CCCl)N=O [Compound 134, 3-n-butyl-3-(cyclopropylmethyl α-L-galactopyranose-6-yl)-1-(2-chloroethyl)-1-nitrosourea] | 150 | 3.73 | 3/6 | > 365 | 40.2 | 490 |  |  |  | 
CC(C)CO[C@@H]1O[C@H](CN(CC(C)(C)C)C(=O)N(CCCl)N=O)[C@@H](O)[C@H](O)[C@H]1O [Compound 184, 3-neopentyl-3-(isobutyl β-D-glucopyranose-6-yl)-1-(2-chloroethyl)-1-nitrosourea] | 170 | 2.93 | 6/6 | > 700 | 58.0 | 540 |  |  |  | 
CCCCO[C@H]1O[C@H](CO)[C@H](O)[C@H](O)[C@H]1N(CCC)C(=O)N(CCCl)N=O [Compound 119, 3-n-propyl-3-(n-butyl α-D-galactopyranose-2-yl)-1-(2-chloroethyl)-1-nitrosourea] | 200 | 5.95 | 3/6 | > 360 | 33.6 | 600 |  |  |  | 
CC=CCO[C@H]1O[C@H](CN(CC(C)C)C(=O)N(CCCl)N=O)[C@@H](O)[C@H](O)[C@H]1O [Compound 29, 3-isobutyl-3-(2-butenyl α-D-glucopyranose-6-yl)-1-(2-chloroethyl)-1-nitrosourea] | 140 | 3.64 | 5/6 | > 620 | 38.5 | 410 |  |  |  | 
CC(C)CN(C(=O)N(CCCl)N=O)[C@@H]1CO[C@H](OC2CCCCC2)[C@H](O)[C@H]1O [Compound 151, 3-isobutyl-3-(cyclohexyl α-D-xylopyranose-4-yl)-1-(2-chloroethyl)-1-nitrosourea] | 150 | 3.21 | 4/6 | > 425 | 46.7 | 490 |  |  |  | 
COCCCN(C(=O)N(CCCl)N=O)[C@H]1CO[C@@H](OCC(C)C)[C@H](O)[C@H]1O [Compound 154, 3-(3-methoxy-n-propyl)-3-(isobutyl α-L-arabinopyranose-4-yl)-1-(2-chloroethyl)-1-nitrosourea] | 160 | 2.85 | 5/6 | > 620 | 56.1 | 500 |  |  |  | 
O=NN(CCCl)C(=O)N(CC1CCCCC1)[C@H]1[C@@H](O)[C@@H](CO)O[C@H](OC2CCCCC2)[C@@H]1O [Compound 128, 3-cyclohexylmethyl-3-(cyclohexyl α-D-galactopyranose-3-yl)-1-(2-chloroethyl)-1-nitrosourea] | 200 | 5.99 | 3/6 | > 350 | 33.4 | 650 |  |  |  | 
CCCCCCCCCCN(C[C@H]1O[C@H](OCCCC)[C@H](O)[C@@H](O)[C@@H]1O)C(=O)N(CCCl)N=O [Compound 8, 3-n-decyl-3-(n-butyl α-D-glucopyranose-6-yl)-1-(2-chloroethyl)-1-nitrosourea] | 100 | 4.46 | 3/6 | > 450 | 22.4 | 315 |  |  |  | 
C=CCN(C[C@H]1O[C@H](OC2CCCCC2)[C@H](O)[C@@H](O)[C@@H]1O)C(=O)N(CCCl)N=O [Compound 38, 3-(2-propenyl) -3-(cyclohexyl α-D-glucopyranose-6-yl)-1-(2-chloroethyl)-1-nitrosourea] | 150 | 3.28 | 6/6 | > 700 | 45.7 | 430 |  |  |  | 
